Patent publication US7138361B2, “Herbicidal heterocycles” (E. I. du Pont de Nemours and Company, priority 2000, dated 2006)

Legend:
Assay type in all cases: in vivo
[1] = system: bermudagrass (Cynodon dactylon); assay: Test C preemergence
Excerpt: (§1) Seeds of plant species selected from bermudagrass (Cynodon dactylon), Surinam grass (Brachiaria decumbens), cocklebur (Xanthium strumarium), corn (Zea mays), crabgrass (Digitaria sanguinalis), woolly cupgrass (Eriochloa villosa), giant foxtail (Setaria faberii), goosegrass (Eleusine indica), johnsongrass (Sorghum halepense), kochia (Kochia scoparia), lambsquarters (Chenopodium album), morningglory (Ipomoea hederacea), yellow nutsedge (Cyperus esculentus), pigweed (Amaranthus retroflexus), common ragweed (Ambrosia elatior), soybean (Glycine max) and velvetleaf (Abutilon theophrasti) were planted and treated preemergence with test chemicals formulated in a non-phytotoxic solvent mixture which included a surfactant.
(§2) At the same time, plants selected from these crop and weed species and also winter barley (Hordeum vulgare), blackgrass (Alopecurus myosuroides), canary grass (Phalaris minor), chickweed (Stellaria media), downy brome (Bromus tectorum), green foxtail (Setaria viridis), Italian ryegrass (Lolium multiflorum), wheat (Triticum aestivum), wild oat (Avena fatua) and windgrass (Apera spica-venti) were treated with postemergence applications of some of the test chemicals formulated in the same manner. Plants ranged in height from 2 to 18 cm (1- to 4-leaf stage) for postemergence treatments. Plant species in the flooded paddy test consisted of rice (Oryza saliva), smallflower flatsedge (Cyperus difformis), duck salad (Heteranthera limosa) and barnyardgrass (Echinochloa crus-galli) grown to the 2-leaf stage for testing. Treated plants and controls were maintained in a greenhouse for 12 to 14 days, after which time all species were compared to controls and visually evaluated. Plant response ratings, summarized in Table C, are based on a scale of 0 to 100 where 0 is no effect and 100 is complete control. A dash (-) response means no test result.

[2] = system: corn (Zea mays); assay: Test C preemergence
Excerpt: as §1, §2

[3] = system: Sunflower; assay: Test C preemergence; conditions: scale 0 to 100, 0 no effect, 100 complete control
Excerpt: as §1, §2

[4] = system: velvetleaf (Abutilon theophrasti); assay: Test C preemergence
Excerpt: as §1, §2

[5] = system: johnsongrass (Sorghum halepense); assay: Test C preemergence
Excerpt: as §1, §2

[6] = system: morningglory (Ipomoea hederacea); assay: Test C preemergence
Excerpt: as §1, §2

[7] = system: giant foxtail (Setaria faberii); assay: Test C preemergence
Excerpt: as §1, §2

[8] = system: kochia (Kochia scoparia); assay: Test C preemergence
Excerpt: as §1, §2

[9] = system: yellow nutsedge (Cyperus esculentus); assay: Test C preemergence
Excerpt: as §1, §2

[10] = system: corn (Zea mays); assay: Test B postemergence; conditions: 13 to 15 days
Outline: (§3)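 Greenhouse test: chemicals are formulated in a surfactant-containing non-phytotoxic solvent and applied either preemergence to planted seeds or postemergence to plants 2 to 18 cm tall. Response is rated visually versus controls after 13 to 15 days, 0 meaning no effect and 100 complete control.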

[11] = system: wheat (Triticum aestivum); assay: Test B postemergence; conditions: 13 to 15 days
Outline: as §3

[12] = system: lambsquarters (Chenopodium album); assay: Test B postemergence; conditions: 13 to 15 days
Outline: as §3

[13] = system: morning glory (Ipomoea hederacea); assay: Test B postemergence; conditions: 13 to 15 days
Outline: as §3

[14] = system: pigweed (Amaranthus retroflexus); assay: Test B postemergence; conditions: 13 to 15 days
Outline: as §3

[15] = system: velvetleaf (Abutilon theophrasti); assay: Test B postemergence; conditions: 13 to 15 days
Outline: as §3

[16] = system: Surinam grass (Brachiaria decumbens); assay: Test B postemergence; conditions: 13 to 15 days
Outline: as §3

[17] = system: cocklebur (Xanthium strumarium); assay: Test B postemergence; conditions: 13 to 15 days
Outline: as §3

[18] = system: giant foxtail (Setaria faberii); assay: Test B postemergence; conditions: 13 to 15 days
Outline: as §3

[19] = system: barnyardgrass (Echinochloa crus-galli); assay: Test B postemergence; conditions: 13 to 15 days
Outline: as §3

[20] = system: blackgrass (Alopecurus myosuroides); assay: Test B postemergence; conditions: 13 to 15 days
Outline: as §3

[21] = system: crabgrass (Digitaria sanguinalis); assay: Test B postemergence; conditions: 13 to 15 days
Outline: as §3

[22] = system: wild oat (Avena fatua); assay: Test B postemergence; conditions: 13 to 15 days
Outline: as §3

[23] = Rate 62 g/ha, scale 0 to 100, 0 no effect, 100 complete control
[24] = preemergence, Rate 31 g/ha, scale 0 to 100
[25] = preemergence, Rate 125 g/ha, scale 0 to 100, 0 no effect, 100 complete control
[26] = Rate 125 g/ha, scale 0 (no effect) to 100 (complete control)
[27] = Rate 500 g/ha, scale 0 to 100, 0 is no effect, 100 is complete control
[28] = Rate 125 g/ha, scale 0 to 100, 0 no effect, 100 complete control
[29] = preemergence, Rate 250 g/ha, visual evaluation after 12 to 14 days
[30] = preemergence, Rate 250 g/ha, scale 0 to 100, 0 no effect, 100 complete control

CCC(CC)c1ccn(C2SCN(c3cccc(C(F)(F)F)c3)C2=O)n1 (stereo not shown) [Compound 21]
Plant response rating, Bermudagrass [1, 23]: 100 | Plant response rating, Bermudagrass [1, 24]: 60 | Plant response rating, Bermudagrass [1, 25]: 100 | Plant response rating, Corn [2, 23]: 20 | Plant response rating, Corn [2, 24]: 20 | Plant response rating, Corn [2, 25]: 20 | Plant response rating, Sunflower ([3]; Rate 62 g/ha): 60 | Plant response rating, Velvetleaf [4, 23]: 0 | Plant response rating, Velvetleaf [4, 24]: 0 | Plant response rating, Velvetleaf [4, 25]: 0 | Plant response rating, Johnsongrass [5, 23]: 70 | Plant response rating, Johnsongrass [5, 24]: 30 | Plant response rating, Johnsongrass [5, 25]: 90 | Plant response rating, Morningglory [6, 23]: 20 | Plant response rating, Morningglory [6, 24]: 0 | Plant response rating, Morningglory [6, 25]: 20 | Plant response rating, Foxtail, Giant [7, 23]: 80 | Plant response rating, Foxtail, Giant [7, 24]: 0 | Plant response rating, Foxtail, Giant [7, 25]: 90 | Plant response rating, Kochia [8, 23]: 90 | Plant response rating, Kochia [8, 24]: 90 | Plant response rating, Kochia [8, 25]: 90 | Plant response rating, Nutsedge [9, 23]: 50 | Plant response rating, Nutsedge [9, 24]: 20 | Plant response rating, Nutsedge [9, 25]: 60 | Plant response rating, Corn [10, 26]: 0 | Plant response rating, Corn [10, 27]: 0 | Plant response rating, Wheat [11, 26]: 0 | Plant response rating, Wheat [11, 27]: 0 | Plant response rating, Lambsquarters [12, 26]: 100 | Plant response rating, Lambsquarters [12, 27]: 100 | Plant response rating, Morningglory [13, 26]: 70 | Plant response rating, Morningglory [13, 27]: 80 | Plant response rating, Pigweed [14, 26]: 70 | Plant response rating, Pigweed [14, 27]: 90 | Plant response rating, Velvetleaf [15, 26]: 20 | Plant response rating, Velvetleaf [15, 27]: 60 | Plant response rating, Surinam grass [16, 26]: 0 | Plant response rating, Surinam grass [16, 27]: 0 | Plant response rating, Cocklebur [17, 26]: 70 | Plant response rating, Cocklebur [17, 27]: 80 | Plant response rating, Foxtail, Giant [18, 26]: 20 | Plant response rating, Foxtail, Giant [18, 27]: 60 | Plant response rating, Barnyardgrass [19, 26]: 90 | Plant response rating, Barnyardgrass [19, 27]: 100 | Plant response rating, Blackgrass [20, 26]: 0 | Plant response rating, Blackgrass [20, 27]: 0 | Plant response rating, Crabgrass [21, 26]: 30 | Plant response rating, Crabgrass [21, 27]: 70 | Plant response rating, Wild Oat [22, 26]: 0 | Plant response rating, Wild Oat [22, 27]: 0

COC(=O)c1cccc(N2CCC(n3ccc(C(C)(C)C)n3)C2=O)c1 (stereo not shown) [Compound 73]
Plant response rating, Bermudagrass [1, 23]: 70 | Plant response rating, Bermudagrass [1, 28]: 100 | Plant response rating, Bermudagrass [1, 24]: 60 | Plant response rating (0 to 100 where 0 is no effect and 100 is complete control), Bermudagrass [1, 29]: 100 | Plant response rating, Corn [2, 23]: 0 | Plant response rating, Corn [2, 28]: 0 | Plant response rating, Corn [2, 24]: 0 | Plant response rating (0 to 100), Corn [2, 29]: 0 | Plant response rating, Sunflower ([3]; Rate 125 g/ha): 50 | Plant response rating, Velvetleaf [4, 28]: 50 | Plant response rating, Velvetleaf [4, 24]: 20 | Plant response rating, Velvetleaf [4, 30]: 60 | Plant response rating, Johnsongrass [5, 23]: 20 | Plant response rating, Johnsongrass [5, 28]: 30 | Plant response rating, Johnsongrass [5, 24]: 0 | Plant response rating (0 to 100), Johnsongrass [5, 29]: 50 | Plant response rating, Morningglory [6, 23]: 30 | Plant response rating, Morningglory [6, 28]: 30 | Plant response rating, Morningglory [6, 24]: 30 | Plant response rating, Morningglory [6, 30]: 100 | Plant response rating, Foxtail, Giant [7, 23]: 80 | Plant response rating, Foxtail, Giant [7, 28]: 100 | Plant response rating, Foxtail, Giant [7, 24]: 20 | Plant response rating (0 to 100), Foxtail, Giant [7, 29]: 100 | Plant response rating, Kochia [8, 23]: 80 | Plant response rating, Kochia [8, 28]: 100 | Plant response rating, Kochia [8, 24]: 20 | Plant response rating (0 to 100), Kochia [8, 29]: 100 | Plant response rating, Nutsedge [9, 23]: 0 | Plant response rating, Nutsedge [9, 28]: 30 | Plant response rating, Nutsedge [9, 24]: 0 | Plant response rating, Nutsedge [9, 30]: 50 | Plant response rating, Corn [10, 26]: 30 | Plant response rating, Corn [10, 27]: 40 | Plant response rating, Wheat [11, 26]: 0 | Plant response rating, Wheat [11, 27]: 0 | Plant response rating, Lambsquarters [12, 26]: 0 | Plant response rating, Lambsquarters [12, 27]: 70 | Plant response rating, Morningglory [13, 26]: 20 | Plant response rating, Morningglory [13, 27]: 20 | Plant response rating, Pigweed [14, 26]: 20 | Plant response rating, Pigweed [14, 27]: 90 | Plant response rating, Velvetleaf [15, 26]: 50 | Plant response rating, Velvetleaf [15, 27]: 70 | Plant response rating, Surinam grass [16, 26]: 0 | Plant response rating, Surinam grass [16, 27]: 0 | Plant response rating, Cocklebur [17, 26]: 20 | Plant response rating, Cocklebur [17, 27]: 90 | Plant response rating, Foxtail, Giant [18, 26]: 20 | Plant response rating, Foxtail, Giant [18, 27]: 50 | Plant response rating, Barnyardgrass [19, 26]: 30 | Plant response rating, Barnyardgrass [19, 27]: 90 | Plant response rating, Blackgrass [20, 26]: 0 | Plant response rating, Blackgrass [20, 27]: 0 | Plant response rating, Crabgrass [21, 26]: 0 | Plant response rating, Crabgrass [21, 27]: 50 | Plant response rating, Wild Oat [22, 26]: 0 | Plant response rating, Wild Oat [22, 27]: 0
